As usually defined, the Kd is the constant that tells how readily two partners part at equilibrium. Higher therefore signals lower affinity.

Results on one molecule are retold here after paper PMC11484808, “Streamlined analysis of drug targets by proteome integral solubility alteration indicates organ-specific engagement” (Nature Communications, 2024).

SMILES strings stand for the structures.

The target in the assay is T1, Pirin (Homo sapiens, UniProt O00625).
T1 construct: gene PIR; recombinant human pirin (Abcam, ab123170)
T1 sequence (O00625 1-290): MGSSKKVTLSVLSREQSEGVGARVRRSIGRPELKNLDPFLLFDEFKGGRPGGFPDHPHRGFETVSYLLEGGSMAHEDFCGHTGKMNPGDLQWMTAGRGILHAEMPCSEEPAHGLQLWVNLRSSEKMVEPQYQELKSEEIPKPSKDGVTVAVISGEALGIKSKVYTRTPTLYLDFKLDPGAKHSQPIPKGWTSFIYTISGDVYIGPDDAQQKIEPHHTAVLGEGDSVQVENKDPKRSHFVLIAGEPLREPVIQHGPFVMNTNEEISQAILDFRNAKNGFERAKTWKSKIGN
Briefly: SPR (Biacore T200), steady state; also TPP-PISA stabilization in extracts. Type of assay: binding.

As to `CC(C)Cc1ccc(C(C)C(=O)O)cc1` (stereo not shown) [Ibuprofen], the Kd was about 546 µM.
